Data taken from the Kinase Knowledgebase extract (Sharma et al. 2016).

What follows are molecules tested against MAPK14 (human) (UniProt Q16539) (assay: Inhibition of MAPK14 Kinase Activity).
Sequence of MAPK14 (human) (Q16539 whole entry, looked up): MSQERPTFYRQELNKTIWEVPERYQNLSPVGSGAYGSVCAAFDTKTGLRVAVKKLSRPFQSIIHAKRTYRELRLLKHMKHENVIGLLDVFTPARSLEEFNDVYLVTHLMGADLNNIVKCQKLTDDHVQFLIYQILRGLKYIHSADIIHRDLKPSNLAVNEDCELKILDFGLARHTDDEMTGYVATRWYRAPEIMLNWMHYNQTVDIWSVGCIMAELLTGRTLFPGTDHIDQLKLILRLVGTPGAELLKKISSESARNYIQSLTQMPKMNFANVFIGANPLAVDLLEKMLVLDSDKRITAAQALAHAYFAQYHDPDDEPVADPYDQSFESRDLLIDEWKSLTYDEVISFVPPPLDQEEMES

| SMILES | IC50 [µM] |
| --- | --- |
| O=C1CCC(Cc2ccccc2)CN1c1c(F)cccc1F (configuration not stated) | ≤ 10 |
| O=C(Cc1ccccc1)Nc1ncc(Cl)c(N2CC(Sc3ccc(F)cc3F)CCC2=O)c1Cl (configuration not stated) | ≤ 10 |
| Cc1cc(C)cc(CC2CSC(=O)N(c3c(Cl)cccc3Cl)C2)c1 (configuration not stated) | ≤ 10 |
| O=C1CCC(Cc2ccc3ccccc3c2)CN1c1c(Cl)cncc1Cl (configuration not stated) | ≤ 10 |
| COc1ccc(CC2CN(c3c(Cl)cccc3Cl)C(=O)CS2)cc1 (configuration not stated) | ≤ 10 |
| O=C1CCC(Sc2cc(F)cc(F)c2)CN1c1c(Cl)ccnc1Cl (configuration not stated) | ≤ 10 |
| O=C1COC(Cc2ccc(Cl)cc2)CN1c1c(Cl)cccc1Cl (configuration not stated) | ≤ 10 |
| O=C1CCC(Cc2ccc(F)cc2F)CN1c1c(Cl)ccnc1Cl (configuration not stated) | ≤ 10 |
| CNc1ncc(Cl)c(N2CC(Sc3ccc(F)cc3F)CCC2=O)c1Cl (configuration not stated) | ≤ 10 |
| Nc1ccc(Cl)c(N2CC(Cc3ccc(F)cc3F)CNC2=O)c1Cl (configuration not stated) | ≤ 10 |
| Cc1cc(C)cc(CC2CN(c3c(Cl)cccc3Cl)C(=O)CO2)c1 (configuration not stated) | ≤ 10 |
| C[C@@H]1C[C@H](Cc2ccc(F)cc2F)CN(c2c(Cl)cc(Br)cc2Cl)C1=O | ≤ 10 |
| O=C1CCC(Oc2cc(Cl)cc(Cl)c2)CN1c1c(Cl)cccc1Cl (configuration not stated) | ≤ 10 |
| O=C1CCC(Sc2ccc(Cl)cc2)CN1C1C(Cl)CCCC1Cl (configuration not stated) | ≤ 10 |
| O=C(NCc1ccccc1CC1CCC(=O)N(c2c(Cl)cccc2Cl)C1)NC1CCCCC1 (configuration not stated) | ≤ 10 |
| CC(=O)Nc1ccc(Cl)c(N2CC(Cc3ccc(F)cc3F)CNC2=O)c1Cl (configuration not stated) | ≤ 10 |
| O=C1CCC(Cc2ccc(Cl)cc2Cl)CN1c1c(Cl)ccnc1Cl (configuration not stated) | ≤ 10 |
| O=C1CCC(Oc2ccc(F)cc2)CN1c1c(Cl)cccc1Cl (configuration not stated) | ≤ 10 |
| COc1ccc(OC2CCC(=O)N(c3c(Cl)cncc3Cl)C2)cc1 (configuration not stated) | ≤ 10 |
| Nc1ccc(Cl)c(N2CC(Oc3ccc(F)cc3F)CCC2=O)c1Cl (configuration not stated) | ≤ 10 |
| CN(C)CCCCc1cc(Cl)c(N2CC(Cc3ccc(F)cc3F)CCC2=O)c(Cl)c1 (configuration not stated) | ≤ 10 |
| CC(=O)Nc1ccc(Cl)c(N2CC(Cc3ccc(F)cc3F)OCC2=O)c1Cl (configuration not stated) | ≤ 10 |
| O=C1CCC(Cc2ccc(F)cc2)CN1c1c(Cl)ccnc1Cl (configuration not stated) | ≤ 10 |

| SMILES | IC50 [µM] |
| --- | --- |
| O=C1CCC(Sc2ccc(F)cc2F)CN1C1C(Cl)CC(CO)CC1Cl (configuration not stated) | ≤ 10 |
| Cc1cc(C(=O)O)cc(C)c1N1CC(Cc2ccc(F)cc2F)CCC1=O (configuration not stated) | ≤ 10 |
| Cc1cc(C(=O)N2CCOCC2)cc(C)c1N1CC(Cc2ccc(F)cc2F)CCC1=O (configuration not stated) | ≤ 10 |
| COc1ccc(CC2CCC(=O)N(c3c(Cl)cccc3Cl)C2)cc1 (configuration not stated) | ≤ 10 |
| O=C1OCC(Cc2ccc(Cl)cc2Cl)CN1c1c(Cl)cccc1Cl (configuration not stated) | ≤ 10 |
| Nc1cc(Cl)c(N2CC(Oc3ccc(F)cc3F)CCC2=O)c(Cl)n1 (configuration not stated) | ≤ 10 |
| O=C1COC(Cc2ccccc2F)CN1c1c(Cl)cccc1Cl (configuration not stated) | ≤ 10 |
| O=C1CCC(Oc2cc(F)cc(F)c2)CN1c1c(Cl)csc1Cl (configuration not stated) | ≤ 10 |
| CN1CC(Cc2ccccc2Cl)CN(c2c(Cl)cccc2Cl)C1=O (configuration not stated) | ≤ 10 |
| O=C(NCc1ccccc1CC1CCC(=O)N(c2c(Cl)cccc2Cl)C1)Nc1ccccc1 (configuration not stated) | ≤ 10 |
| CNC1CCC(Cl)C(N2CC(Cc3ccc(F)cc3F)CCC2=O)C1Cl (configuration not stated) | ≤ 10 |
| Nc1sc(Cl)c(N2CC(Oc3ccc(F)cc3F)CCC2=O)c1Cl (configuration not stated) | ≤ 10 |
| COC(=O)/C=C/c1ccccc1CC1CCC(=O)N(c2c(C)cccc2C)C1 (configuration not stated) | ≤ 10 |
| CN(C)C(=O)CNc1cc(Cl)c(N2CC(Cc3ccc(F)cc3F)CCC2=O)c(Cl)c1 (configuration not stated) | ≤ 10 |
| Cn1nc(C(C)(C)C)cc1NC(=O)NCc1ccccc1CC1CCC(=O)N(c2c(Cl)cccc2Cl)C1 (configuration not stated) | ≤ 10 |
| CC(C)(C)OC(=O)N(CC(=O)O)c1cc(Cl)c(N2CC(Cc3ccc(F)cc3F)CCC2=O)c(Cl)c1 (configuration not stated) | ≤ 10 |
| CN1CC(Cc2ccc(F)cc2)CN(c2c(Cl)cccc2Cl)C1=O (configuration not stated) | ≤ 10 |
| CNc1cnc(Cl)c(N2CC(Sc3ccc(F)cc3F)CCC2=O)c1Cl (configuration not stated) | ≤ 10 |
| O=C1CSC(Cc2ccccc2)CN1c1c(Cl)cccc1Cl (configuration not stated) | ≤ 10 |
| CNC(=O)CNc1cc(Cl)c(N2CC(Cc3ccc(F)cc3F)CCC2=O)c(Cl)c1 (configuration not stated) | ≤ 10 |
| Cc1ccc(CC2CN(c3c(Cl)cccc3Cl)C(=O)CO2)cc1 (configuration not stated) | ≤ 10 |
| O=C1CCC(Oc2ccc3ccccc3c2)CN1c1c(Cl)ccnc1Cl (configuration not stated) | ≤ 10 |
| O=C(Cc1ccccc1)Nc1cc(Cl)c(N2CC(Cc3ccc(F)cc3F)CNC2=O)c(Cl)c1 (configuration not stated) | ≤ 10 |

| SMILES | IC50 [µM] |
| --- | --- |
| O=C(Cc1ccccc1)Nc1cc(Cl)c(N2CC(Sc3ccc(F)cc3F)CCC2=O)c(Cl)c1 (configuration not stated) | ≤ 10 |
| COc1ccc(OC2CCC(=O)N(c3c(Cl)ccnc3Cl)C2)cc1 (configuration not stated) | ≤ 10 |
| Cc1ccc(CC2CCC(=O)N(c3c(Cl)cncc3Cl)C2)c(C)c1 (configuration not stated) | ≤ 10 |
| O=C1COC(Cc2cccc3ccccc23)CN1c1c(Cl)cccc1Cl (configuration not stated) | ≤ 10 |
| Cc1ccc(OC2CCC(=O)N(c3c(Cl)csc3Cl)C2)c(C)c1 (configuration not stated) | ≤ 10 |
| O=C1CCC(Cc2ccc(F)cc2F)CN1c1c(Cl)cc(C#CCO)cc1Cl (configuration not stated) | ≤ 10 |
| O=C1CCC(Cc2ccc(F)cc2F)CN1c1c(Cl)ncc(CO)c1Cl (configuration not stated) | ≤ 10 |
| CC(=O)Nc1cc(Cl)c(N2CC(Cc3ccc(F)cc3F)CSC2=O)c(Cl)c1 (configuration not stated) | ≤ 10 |
| CC(O)(c1ccc(F)cc1F)C1CCC(=O)N(c2c(Cl)cccc2Cl)C1 (configuration not stated) | ≤ 10 |
| CC(=O)Nc1cnc(Cl)c(N2CC(Cc3ccc(F)cc3F)CCC2=O)c1Cl (configuration not stated) | ≤ 10 |
| O=C1CCC(Cc2ccc(F)cc2F)CN1C1C(Cl)CC(O)CC1Cl (configuration not stated) | ≤ 10 |
| CNC1CCC(Cl)C(N2CC(Sc3ccc(F)cc3F)CCC2=O)C1Cl (configuration not stated) | ≤ 10 |
| COc1ccccc1CC1CNC(=O)N(c2c(Cl)cccc2Cl)C1 (configuration not stated) | ≤ 10 |
| CN(C)CCCNc1cc(Cl)c(N2CC(Cc3ccc(F)cc3F)CCC2=O)c(Cl)c1 (configuration not stated) | ≤ 10 |
| Nc1cnc(Cl)c(N2CC(Sc3ccc(F)cc3F)CCC2=O)c1Cl (configuration not stated) | ≤ 10 |
| O=C1CCC(Cc2ccccc2Cl)CN1C1C(Cl)CCCC1Cl (configuration not stated) | ≤ 10 |
| NCCCc1cc(Cl)c(N2CC(Cc3ccc(F)cc3F)CCC2=O)c(Cl)c1 (configuration not stated) | ≤ 10 |
| CN1CCN(c2cc(Cl)c(N3CC(Cc4ccc(F)cc4F)CCC3=O)c(Cl)c2)CC1 (configuration not stated) | ≤ 10 |
| O=C1CCC(Cc2cc(F)cc(F)c2)CN1C1C(Cl)CCCC1Cl (configuration not stated) | ≤ 10 |
| O=C1CCC(Cc2ccc(F)cc2F)CN1c1c(Cl)sc(O)c1Cl (configuration not stated) | ≤ 10 |
| Cc1ccc(OC2CCC(=O)N(C3C(Cl)CCCC3Cl)C2)c(C)c1 (configuration not stated) | ≤ 10 |
| Cc1cc(C(=O)NCCN(C)C)cc(C)c1N1CC(Cc2ccc(F)cc2F)CNC1=O (configuration not stated) | ≤ 10 |
| O=C1CSC(Cc2ccc(F)cc2F)CN1c1c(Cl)cc(O)cc1Cl (configuration not stated) | ≤ 10 |

| SMILES | IC50 [µM] |
| --- | --- |
| O=C1CCC(Oc2cc(Cl)cc(Cl)c2)CN1c1c(Cl)cncc1Cl (configuration not stated) | ≤ 10 |
| CC(=O)NCCNc1cc(Cl)c(N2CC(Cc3ccc(F)cc3F)CCC2=O)c(Cl)c1 (configuration not stated) | ≤ 10 |
| O=C(O)CCCC(=O)Nc1cc(Cl)c(N2CC(Cc3ccc(F)cc3F)CCC2=O)c(Cl)c1 (configuration not stated) | ≤ 10 |
| CC(=O)N(C)c1cc(Cl)c(N2CC(Cc3ccc(F)cc3F)CCC2=O)c(Cl)c1 (configuration not stated) | ≤ 10 |
| COc1ccc(CC2COC(=O)N(c3c(Cl)cccc3Cl)C2)cc1 (configuration not stated) | ≤ 10 |
| O=C1CCC(Sc2ccc(F)cc2)CN1c1c(Cl)cncc1Cl (configuration not stated) | ≤ 10 |
| COc1ccccc1CC1CN(c2c(Cl)cccc2Cl)C(=O)CS1 (configuration not stated) | ≤ 10 |
| O=C1CCC(Cc2ccc(F)cc2F)CN1c1c(Cl)csc1Cl (configuration not stated) | ≤ 10 |
| O=C1CCC(Sc2ccc(F)cc2F)CN1c1c(Cl)sc(CO)c1Cl (configuration not stated) | ≤ 10 |
| COCC1CC(Cc2ccc(F)cc2F)CN(c2c(Cl)cccc2Cl)C1=O (configuration not stated) | ≤ 10 |
| O=C1CCC(Sc2cc(Cl)cc(Cl)c2)CN1c1c(Cl)ccnc1Cl (configuration not stated) | ≤ 10 |
| COC(=O)c1ccccc1CC1CCC(=O)N(c2c(C)cccc2C)C1 (configuration not stated) | ≤ 10 |
| O=C1CCC(Oc2cccc3ccccc23)CN1c1c(Cl)cncc1Cl (configuration not stated) | ≤ 10 |
| CN1CC(Cc2cccc3ccccc23)CN(c2c(Cl)cccc2Cl)C1=O (configuration not stated) | ≤ 10 |
| O=C1COC(Cc2ccc(F)cc2F)CN1c1c(Cl)cccc1Cl (configuration not stated) | ≤ 10 |
| CNc1cc(Cl)c(N2CC(Cc3ccc(F)cc3F)CCC2=O)c(Cl)c1 (configuration not stated) | ≤ 10 |
| O=C1CCC(Cc2cc(Cl)cc(Cl)c2)CN1c1c(Cl)ccnc1Cl (configuration not stated) | ≤ 10 |
| O=Cc1ccccc1CC1CCC(=O)N(c2c(Cl)cccc2Cl)C1 (configuration not stated) | ≤ 10 |
| O=C1COC(Cc2ccccc2Cl)CN1c1c(Cl)cccc1Cl (configuration not stated) | ≤ 10 |
| CNC1CCC(Cl)C(N2CC(Oc3ccc(F)cc3F)CCC2=O)C1Cl (configuration not stated) | ≤ 10 |
| O=C1CCC(Sc2ccc(Cl)cc2Cl)CN1c1c(Cl)ccnc1Cl (configuration not stated) | ≤ 10 |
| O=C1CCC(Oc2ccccc2)CN1c1c(Cl)cncc1Cl (configuration not stated) | ≤ 10 |
| Cc1ccccc1SC1CCC(=O)N(c2c(Cl)cccc2Cl)C1 (configuration not stated) | ≤ 10 |

| SMILES | IC50 [µM] |
| --- | --- |
| O=C1CCC(Cc2ccccc2Cl)CN1c1c(Cl)cccc1Cl (configuration not stated) | ≤ 10 |
| O=C(O)/C=C/c1ccccc1CC1CCC(=O)N(c2c(Cl)cccc2Cl)C1 (configuration not stated) | ≤ 10 |
| O=C1CCC(Cc2ccc(F)cc2F)(Cc2ccc(F)cc2F)CN1c1c(Cl)cccc1Cl | ≤ 10 |
| O=C1OCC(Cc2ccccc2Cl)CN1c1c(Cl)cccc1Cl (configuration not stated) | ≤ 10 |
| O=C1CCC(Oc2cccc3ccccc23)CN1c1c(Cl)cccc1Cl (configuration not stated) | ≤ 10 |
| Cc1cc(C)cc(SC2CCC(=O)N(c3c(Cl)cccc3Cl)C2)c1 (configuration not stated) | ≤ 10 |
| O=C1SCC(Cc2cccc3ccccc23)CN1c1c(Cl)cccc1Cl (configuration not stated) | ≤ 10 |
| COc1ccccc1SC1CCC(=O)N(c2c(Cl)csc2Cl)C1 (configuration not stated) | ≤ 10 |
| Nc1ccc(N2CC(Cc3ccc(F)cc3F)CCC2=O)c(Cl)c1 (configuration not stated) | ≤ 10 |
| O=C1CCC(Cc2ccc(F)cc2F)CN1C1C(Cl)CCC(O)C1Cl (configuration not stated) | ≤ 10 |
| O=C1CCC(Cc2ccc(F)cc2F)CN1c1c(Cl)cc(O)cc1Cl (configuration not stated) | ≤ 10 |
| CCOC(=O)CN(C(=O)OC(C)(C)C)c1cc(Cl)c(N2CC(Cc3ccc(F)cc3F)CCC2=O)c(Cl)c1 (configuration not stated) | ≤ 10 |
| CN(C)CCNC(=O)c1cc(Cl)c(N2CC(Cc3ccc(F)cc3F)CCC2=O)c(Cl)c1 (configuration not stated) | ≤ 10 |
| CC(C)(C)OC(=O)N[C@@H](CO)C(=O)Nc1cc(Cl)c(N2CC(Cc3ccc(F)cc3F)CCC2=O)c(Cl)c1 (some centres not stated) | ≤ 10 |
| Nc1cc(Cl)c(N2CC(Cc3ccc(F)cc3F)OCC2=O)c(Cl)c1 (configuration not stated) | ≤ 10 |
| CNc1cc(Cl)c(N2CC(Sc3ccc(F)cc3F)CCC2=O)c(Cl)c1 (configuration not stated) | ≤ 10 |
| CC(=O)Nc1cc(Cl)c(N2CC(Cc3ccc(F)cc3F)CNC2=O)c(Cl)c1 (configuration not stated) | ≤ 10 |
| Nc1ccc(Cl)c(N2CC(Cc3ccc(F)cc3F)SCC2=O)c1Cl (configuration not stated) | ≤ 10 |
| CN1CC(=O)N(c2c(Cl)cccc2Cl)CC1Cc1ccc(F)cc1F (configuration not stated) | ≤ 10 |
| CCNC(=O)NCc1ccccc1CC1CCC(=O)N(c2c(Cl)cccc2Cl)C1 (configuration not stated) | ≤ 10 |
